The values below are quoted from earlier work in US20010009917A1, “Methods and compositions for treating asthma, atherosclerosis and inflammatory diseases using optically pure (-zileuton” (priority 1993, published 2001).

The test system of one data set is LTB4. Particulars: human volunteers, 800 mg p.o. twice per day for four weeks.
The target in data set [1] is T1, sheep seminal vesicle cyclooxygenase (Ovis aries, UniProt P05979).
T1 construct: incubations with sheep seminal vesicle gland microsomes (2 mg/mL); from tissue; host or cells: sheep seminal vesicle gland microsomes
T1 sequence (P05979 25-600): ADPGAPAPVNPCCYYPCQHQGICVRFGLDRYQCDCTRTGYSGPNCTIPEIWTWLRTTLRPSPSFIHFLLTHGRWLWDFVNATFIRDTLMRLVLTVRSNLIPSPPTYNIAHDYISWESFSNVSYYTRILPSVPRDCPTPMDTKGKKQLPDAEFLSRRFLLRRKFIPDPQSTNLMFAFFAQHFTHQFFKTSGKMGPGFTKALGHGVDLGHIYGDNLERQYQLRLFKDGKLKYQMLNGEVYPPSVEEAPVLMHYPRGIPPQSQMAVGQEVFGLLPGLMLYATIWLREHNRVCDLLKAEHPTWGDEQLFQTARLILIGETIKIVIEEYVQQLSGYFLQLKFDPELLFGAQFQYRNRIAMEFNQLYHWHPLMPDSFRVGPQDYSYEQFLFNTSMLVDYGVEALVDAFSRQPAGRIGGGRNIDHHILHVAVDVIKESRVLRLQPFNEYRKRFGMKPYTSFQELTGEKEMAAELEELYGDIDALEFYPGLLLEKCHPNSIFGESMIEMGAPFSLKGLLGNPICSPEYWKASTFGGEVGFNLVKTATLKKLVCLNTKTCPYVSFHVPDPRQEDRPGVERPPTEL

The target in data set [2] is T2, human platelet 12-lipoxygenase (Homo sapiens, UniProt P18054).
T2 construct: the supernatant containing the 12-lipoxygenase activity stored frozen until used; from tissue; host or cells: human platelets, sonicated lysate supernatant
T2 sequence (P18054 1-663): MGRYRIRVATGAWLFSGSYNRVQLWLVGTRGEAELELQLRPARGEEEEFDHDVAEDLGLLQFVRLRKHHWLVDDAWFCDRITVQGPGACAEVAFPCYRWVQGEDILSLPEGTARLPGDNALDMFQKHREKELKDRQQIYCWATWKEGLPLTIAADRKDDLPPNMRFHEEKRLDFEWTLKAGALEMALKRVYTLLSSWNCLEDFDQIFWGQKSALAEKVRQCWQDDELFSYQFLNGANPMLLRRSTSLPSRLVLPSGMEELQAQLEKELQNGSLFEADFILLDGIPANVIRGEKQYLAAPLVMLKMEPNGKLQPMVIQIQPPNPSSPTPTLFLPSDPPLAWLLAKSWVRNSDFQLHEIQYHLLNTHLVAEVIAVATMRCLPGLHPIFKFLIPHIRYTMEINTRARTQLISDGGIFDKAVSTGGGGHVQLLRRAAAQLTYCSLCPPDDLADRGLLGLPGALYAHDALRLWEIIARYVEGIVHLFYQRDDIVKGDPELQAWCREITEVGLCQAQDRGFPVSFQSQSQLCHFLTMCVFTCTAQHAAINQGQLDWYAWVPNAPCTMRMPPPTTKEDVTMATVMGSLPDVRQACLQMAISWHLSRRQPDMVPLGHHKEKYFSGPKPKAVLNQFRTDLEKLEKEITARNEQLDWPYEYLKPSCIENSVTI

The conditions of data set [3]: dog liver microsomes. (Microsomes from liver hold many membrane-bound enzymes, among them those of drug oxidation.)

Turning to `CC(c1cc2ccccc2s1)N(O)C(N)=O` (racemic) [racemic zileuton, N-(1-benzo[b]thien-2-ylethyl)-N-hydroxyurea], under “four week trial”, the “patients reporting an adverse event during the four week trial” value is “One hundred”. Further, the “improvement in symptoms of rheumatoid arthritis” value (human volunteers, 800 mg p.o. twice per day for four weeks) is given as “statistically significant improvement”. Further, the “decreases in LTB4” value in the data set on LTB4 is listed as 75 to 85%. The “inhibitory effect on sheep seminal vesicle cyclooxygenase” value in data set [1] is reported as “little inhibitory effect”. Also, in data set [2], the “inhibitory effect on human platelet 12-lipoxygenase” value was “little inhibitory effect”.
Turning to `C[C@@H](c1cc2ccccc2s1)N(O)C(N)=O` [S-(−)-zileuton], the glucuronidation result in data set [3] is reported as “selective glucuronidation”.
Regarding `C[C@H](c1cc2ccccc2s1)N(O)C(N)=O` [(+)-zileuton, (+) isomer of N-(1-benzo[b]thien-2-ylethyl)-N-hydroxyurea], the “effect on glucuronidation of S-(−)-zileuton” value in data set [3] is reported as “enhancement of that reaction”.
On to `CC(C)NC[C@H](O)COc1cccc2ccccc12` [propranolol], for which the “potency relative to the D-enantiomer” value with beta-adrenergic is listed as 100 times.
